Assay results from patent US8138176B2, “Imidazo compounds” (Novartis AG, priority 2006, dated 2012).

Test system: plasma aldosterone and corticosterone levels
Test: Suppression of plasma aldosterone and corticosterone levels in ACTH-stimulated rats
Assay type: in vivo, Wistar rats
Conditions: rat plasma, 4 mg/kg p.o., 2 h after dosing vs 1 h before dosing
Experimental: The aldosterone- and corticosterone-suppressing activity of herein described compounds may be assessed with the following in vivo protocol.
Adult male Wistar rats weighing between 250 and 350 grams are kept under the usual 12 hour light and 12 hour dark conditions at a temperature of 23° C.±2° C. On the first day of the experiment, the animals receive a subcutaneous injection of a depot ACTH product in a dose of 1.0 mg/kg weight (SYNACTHEN-Depot, Novartis, Basel, CH) 16 hours prior to the administration of a test compound. […] An alternative method to stimulate aldosterone secretion consists in subjecting rats to a low salt diet for 48 hours and applying the diuretic furosemide at 10 mg/kg by subcutaneous or intraperitoneal administration 16 hours, respectively 2 hours prior to the start of the experiment. On the second day of the experiment, the animals are divided into test groups of 5 animals and subjected to a first bleed 1 hour prior to the administration of test compound. Subsequently, and 16 hours after the injection of the ACTH product, the animals receive either vehicle or test compound dissolved in vehicle in a variable dose range from 0.02 to 20 mg/kg by oral gavage. The animals are bled two more times from the vena subclavia under isoflurane anaesthesia 2 and 6 hours after dosing. The blood is collected in heparin-treated tubes. The plasma samples are obtained by centrifugation and stored at −20° C. An alternative method to bleed animals time-dependently consists in using animals that are chronically carotid catheterized which allows the periodical sampling of up to 0.2 ml of blood using an AccuSampler (DiLab Europe, Lund, Sweden). The blood sampling with the AccuSampler may occur 1 hour prior to the administration of a test compound and 2, 4, 6, 8, 12, 16 and 24 hours thereafter. The blood samples are anticoagulated with heparin and centrifuged. The aldosterone and corticosterone concentrations of the plasma samples can be determined with a radioimmunoassay as described above for the in vitro test systems.
The selective suppression of plasma steroid levels as for instance aldosterone in comparison to corticosterone may serve as a measure for in vivo bioavailability and pharmacodynamic enzyme inhibitory activity of the herein described compounds. The evaluation of the data may occur relative to the application of vehicle or quantitatively by determination of the area under the curve (AUC).

SMILES	Aldosterone levels (% change at 2 h) [% change]	Corticosterone levels (% change at 2 h) [% change]
CC(=O)c1ccc(C2COCc3cncn32)cc1 (stereo not shown) [Example 16]	−67	−9
Fc1ccc(C2COCc3cncn32)cc1 (stereo not shown) [Example 14, 5-(4-Fluorophenyl)-5,6-dihydro-8H-imidazo[5,1-c][1,4]oxazine]	−58	−7
